According to patent US7915022B2, “Carbonyl reductase, gene thereof and method of using the same” (priority 2004, dated 2011):

Key:
[1] = system: polypeptide consisting of the amino acid sequence shown in SEQ ID NO: 3 (carbonyl reductase), cell-free extract of E. coli HB101 (pNTOM3); experiment: Substrate specificity of polypeptide produced by transformant E. coli HB101 (pNTOM3); type: biochemical, Ogataea minuta var. minuta NBRC0975; details: 1 mM substrate, 0.25 mM NADPH, pH 6.5, 30° C., 1 min; relative to activity on CBPB as 100%
Description: (§1) In 100 mM phosphate buffer (pH 6.5) containing 0.33% (v/v) dimethyl sulfoxide were dissolved a carbonyl compound to be a substrate to a final concentration of 1 mM, and a coenzyme NADPH to a final concentration of 0.25 mM, respectively. Thereto was added a cell-free extract of E. coli HB101 (pNTOM4) or E. coli HB101 (pNTOM3) prepared in Example 7, and the mixture was reacted at 30° C. for 1 min. The reduction activity on each carbonyl compound was calculated from the rate of decrease in the absorbance of the reaction mixture at a wavelength of 340 nm, and shown in Table 2 as a value relative to the activity on (3S)-1-chloro-3-tert-butoxycarbonylamino-4-phenyl-2-butanone as 100%.

[2] = system: polypeptide consisting of the amino acid sequence shown in SEQ ID NO: 4 (carbonyl reductase), cell-free extract of E. coli HB101 (pNTOM4); experiment: Substrate specificity of polypeptide produced by transformant E. coli HB101 (pNTOM4); type: biochemical, Ogataea minuta var. minuta NBRC0975; details: 1 mM substrate, 0.25 mM NADPH, pH 6.5, 30° C., 1 min; relative to activity on CBPB as 100%
Description: as §1

SMILES	relative activity (%) E. coli HB101 (pNTOM3) [1]	relative activity (%) E. coli HB101 (pNTOM4) [2]
O=CCCc1ccccc1 [3-phenylpropionaldehyde]	2410%	7%
CCOC(=O)C(C)=O [ethyl pyruvate]	1067%	23%
CC(=O)CO [hydroxyacetone]	51%	0%
CCOC(=O)C(=O)c1ccccc1 [ethyl benzoylformate]	296%	20%
CCC=O [propionaldehyde]	99%	0%
CCCCCCC(C)=O [2-octanone]	808%	3%
CCOC(=O)CC(=O)COCc1ccccc1 [ethyl 4-benzyloxyacetoacetate]	1259%	8%
CC(=O)CC(=O)OCc1ccccc1 [benzyl acetoacetate]	883%	4%
CC(=O)c1ccc(F)cc1 [4′-fluoroacetophenone]	28%	1%
CCOC(=O)CC(=O)CCl [ethyl 4-chloroacetoacetate]	4547%	22%
CCOC(=O)C(C)C(C)=O (stereo not shown) [ethyl 2-methylacetoacetate]	619%	4%
O=Cc1ccccc1[N+](=O)[O-] [o-nitrobenzaldehyde]	1621%	89%
COC(=O)CC(C)=O [methyl acetoacetate]	8%	0%
CCOC(=O)C(=O)CCc1ccccc1 [ethyl 2-oxo-4-phenylbutyrate]	127%	106%
O=Cc1ccccc1Cl [o-chlorobenzaldehyde]	269%	17%
CC(C)=O [acetone]	47%	0%
CC(=O)CCc1ccccc1 [benzylacetone]	66%	0%
CC(=O)c1cccc(O)c1 [3′-hydroxyacetophenone]	33%	0%
COC(=O)C(C)=O [methyl pyruvate]	674%	5%
O=C(CCl)c1cccc(Cl)c1 [2-chloro-1-(3′-chlorophenyl)ethanone]	1301%	33%
O=Cc1ccc(Cl)cc1 [p-chlorobenzaldehyde]	91%	12%
CCOC(=O)CC(=O)CN=[N+]=[N-] [ethyl 4-azideacetoacetate]	659%	1%
CC(=O)C(C)=O [diacetyl]	444%	5%
